Legend:
[1] = molecular target: T1, recombinant human MER (Homo sapiens, UniProt Q12866); assay: Biochemical potency, HTRF KinEASE-TK kinase assay; settings: 1 nM MER, 700 μM ATP
T1 construct: purchased Invitrogen
T1 sequence (Q12866 21-999): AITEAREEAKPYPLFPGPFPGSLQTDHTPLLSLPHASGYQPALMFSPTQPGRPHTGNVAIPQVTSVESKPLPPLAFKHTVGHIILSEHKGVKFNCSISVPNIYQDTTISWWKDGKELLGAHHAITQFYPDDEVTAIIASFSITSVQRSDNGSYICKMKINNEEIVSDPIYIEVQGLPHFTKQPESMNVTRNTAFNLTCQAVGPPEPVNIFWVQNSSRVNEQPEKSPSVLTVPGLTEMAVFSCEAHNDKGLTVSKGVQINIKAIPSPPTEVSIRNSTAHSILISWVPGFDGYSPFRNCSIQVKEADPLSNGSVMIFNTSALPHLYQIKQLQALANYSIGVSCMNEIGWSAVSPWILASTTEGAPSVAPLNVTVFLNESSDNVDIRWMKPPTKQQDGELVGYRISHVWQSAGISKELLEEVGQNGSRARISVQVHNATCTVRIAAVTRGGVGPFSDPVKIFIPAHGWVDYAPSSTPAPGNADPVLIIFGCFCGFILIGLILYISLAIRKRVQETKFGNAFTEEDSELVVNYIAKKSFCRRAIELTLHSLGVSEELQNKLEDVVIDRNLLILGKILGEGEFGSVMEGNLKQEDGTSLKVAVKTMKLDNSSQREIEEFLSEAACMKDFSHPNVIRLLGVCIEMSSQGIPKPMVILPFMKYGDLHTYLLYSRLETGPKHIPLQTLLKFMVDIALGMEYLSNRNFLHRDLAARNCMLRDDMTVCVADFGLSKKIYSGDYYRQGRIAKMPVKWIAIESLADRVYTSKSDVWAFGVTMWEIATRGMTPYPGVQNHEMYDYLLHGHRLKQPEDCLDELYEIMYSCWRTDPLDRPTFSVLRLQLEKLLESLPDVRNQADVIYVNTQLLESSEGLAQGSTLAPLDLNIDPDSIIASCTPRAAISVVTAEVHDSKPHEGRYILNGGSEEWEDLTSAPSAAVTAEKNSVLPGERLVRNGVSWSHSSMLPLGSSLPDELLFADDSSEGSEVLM
Outline: (§1)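 Compounds preincubated 1 h at RT with enzyme in 50 mM HEPES pH 7.4, 10 mM MgCl2, 0.01% BSA, 1 mM DTT; reactions then ran 2 h at RT with 5 nM AXL or 1 nM TYRO3/MER, 800 nM TK substrate-biotin, 700 μM ATP, 1% DMSO. HTRF 665/620 ratio read; percent activity calculated.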

[2] = molecular target: T2, recombinant human TYRO3 (Homo sapiens, UniProt Q06418); assay: Biochemical potency, HTRF KinEASE-TK kinase assay; settings: 1 nM TYRO3, 700 μM ATP
T2 construct: purchased Invitrogen
T2 sequence (Q06418 41-890): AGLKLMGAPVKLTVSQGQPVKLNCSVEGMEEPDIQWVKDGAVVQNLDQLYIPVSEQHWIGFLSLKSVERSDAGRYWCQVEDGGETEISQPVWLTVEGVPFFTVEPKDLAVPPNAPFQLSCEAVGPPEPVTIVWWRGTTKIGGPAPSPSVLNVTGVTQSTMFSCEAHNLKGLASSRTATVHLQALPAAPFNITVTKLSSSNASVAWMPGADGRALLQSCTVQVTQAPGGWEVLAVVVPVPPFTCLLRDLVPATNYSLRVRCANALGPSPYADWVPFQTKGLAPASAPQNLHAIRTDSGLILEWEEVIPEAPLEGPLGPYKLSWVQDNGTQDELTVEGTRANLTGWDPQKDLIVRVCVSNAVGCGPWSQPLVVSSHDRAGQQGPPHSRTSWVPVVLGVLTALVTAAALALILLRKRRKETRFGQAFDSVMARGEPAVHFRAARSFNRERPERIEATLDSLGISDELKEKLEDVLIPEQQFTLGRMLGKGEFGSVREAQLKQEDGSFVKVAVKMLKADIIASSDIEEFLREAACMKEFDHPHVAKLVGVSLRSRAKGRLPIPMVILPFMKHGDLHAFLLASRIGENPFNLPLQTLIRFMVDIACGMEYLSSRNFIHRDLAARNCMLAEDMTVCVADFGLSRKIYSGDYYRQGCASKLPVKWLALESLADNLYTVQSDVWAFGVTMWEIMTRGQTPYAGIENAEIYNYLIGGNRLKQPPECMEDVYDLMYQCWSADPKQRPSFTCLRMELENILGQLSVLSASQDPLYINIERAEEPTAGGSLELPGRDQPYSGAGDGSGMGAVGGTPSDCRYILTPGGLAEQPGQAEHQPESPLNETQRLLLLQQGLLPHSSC
Outline: as §1

Structure (SMILES) | IC50 [1] [nM] | IC50 [2] [nM]
COCCOc1cccnc1-c1ccc(-c2n[nH]c3ncc(-c4ccc5c(c4)CC[C@@H](N4C6COCC4C6)CC5)cc23)cc1 [Example 180, 6-[(7S)-2-(3-{4-[3-(2-Methoxyethoxy)pyridin-2-yl]phenyl}-1H-pyrazolo[3,4-b]pyridin-5-yl)-6,7,8,9-tetrahydro-5H-benzo[7]annulen-7-yl]-3-oxa-6-azabicyclo[3.1.1]heptane] | 100 to 1000 | < 100
CCOc1cccnc1-c1ccc(-c2n[nH]c3ncc(-c4ccc5c(c4)CC[C@@H](N4C6COCC4C6)CC5)cc23)cc1 [Example 181, 6-[(7S)-2-{3-[4-(3-Ethoxypyridin-2-yl)phenyl]-1H-pyrazolo[3,4-b]pyridin-5-yl}-6,7,8,9-tetrahydro-5H-benzo[7]annulen-7-yl]-3-oxa-6-azabicyclo[3.1.1]heptane] | 100 to 1000 | 100 to 1000
Cc1cccnc1-c1ccc(-c2c[nH]c3ncc(-c4ccc5c(c4)CC[C@@H](N[C@H]4CCCOC4)CC5)cc23)cc1 [Example 186, (3S)—N-[(7S)-2-{3-[4-(3-Methylpyridin-2-yl)phenyl]-1H-pyrrolo[2,3-b]pyridin-5-yl}-6,7,8,9-tetrahydro-5H-benzo[7]annulen-7-yl]oxan-3-amine] | < 100 | < 100
Cc1cccnc1-c1ccc(-c2c[nH]c3ncc(-c4ccc5c(c4)CC[C@@H](N4C[C@@H]6C[C@H]4CO6)CC5)cc23)cc1 [Example 187, (4S)-5-[(7S)-2-{3-[4-(3-Methylpyridin-2-yl)phenyl]-1H-pyrrolo[2,3-b]pyridin-5-yl}-6,7,8,9-tetrahydro-5H-benzo[7]annulen-7-yl]-2-oxa-5-azabicyclo[2.2.1]heptane] | 100 to 1000 | < 100

Other lines, results leading:

IC50 [1] [nM] | IC50 [2] [nM] | Structure (SMILES)
100 to 1000 | < 100 | CCc1cccnc1-c1ccc(-c2n[nH]c3ncc(-c4ccc5c(c4)CC[C@@H](N4C6COCC4C6)CC5)cc23)cc1 [Example 182, 6-[(7S)-2-{3-[4-(3-Ethylpyridin-2-yl)phenyl]-1H-pyrazolo[3,4-b]pyridin-5-yl}-6,7,8,9-tetrahydro-5H-benzo[7]annulen-7-yl]-3-oxa-6-azabicyclo[3.1.1]heptane]
100 to 1000 | < 100 | CCc1cccnc1-c1ccc(-c2c[nH]c3ncc(-c4ccc5c(c4)CC[C@@H](N4C6COCC4C6)CC5)cc23)cc1 [Example 183, 6-[(7S)-2-{3-[4-(3-Ethylpyridin-2-yl)phenyl]-1H-pyrrolo[2,3-b]pyridin-5-yl}-6,7,8,9-tetrahydro-5H-benzo[7]annulen-7-yl]-3-oxa-6-azabicyclo[3.1.1]heptane]

Reference: patent US12195482B1 (Arcus Biosciences, Inc., priority 2022, dated 2025)
